This note sets out measurements from paper PMC12591137, “Emodin Alleviates Sepsis‐Induced Multiorgan Damage by Inhibiting NETosis through Targeting Neutrophils BCL‐10” (Advanced Science, 2025).

In test [1] the target is T1, rhBCL-10 (recombinant human BCL-10) (Homo sapiens, UniProt O95999).
T1 construct: gene BCL10; recombinant human protein, amine-coupled on sensor chip for SPR
T1 sequence (O95999 1-233): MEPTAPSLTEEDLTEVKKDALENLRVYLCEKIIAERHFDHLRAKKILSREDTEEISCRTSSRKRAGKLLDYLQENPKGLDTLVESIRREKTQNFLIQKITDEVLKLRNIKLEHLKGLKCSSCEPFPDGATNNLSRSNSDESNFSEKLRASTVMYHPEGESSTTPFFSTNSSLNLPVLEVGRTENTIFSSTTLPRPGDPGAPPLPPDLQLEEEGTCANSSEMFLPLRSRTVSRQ
Briefly: thermal shift, soluble protein by western blot. To be noted: 100 µM emodin, 37-67 °C; text says recombinant BCL-10, methods describe lysate of PMA-treated HL-60 cells. In kind it is binding.

Test [2] deals with T1, rhBCL-10 (recombinant human BCL-10). Briefly: SPR (Biacore T200), global […] Langmuir kinetic fit. In kind it is binding.
Test [3] addresses T2, Flag-BCL-10 (Homo sapiens, UniProt O95999).
T2 construct: gene BCL10; Flag-tagged, overexpressed in HEK293T, cell lysate; plasmid section instead says N-terminal 'Streptococcus' tag in pCDH-EF1-MCS-T2A-Puro
T2 sequence (O95999 1-233): T1 sequence (O95999 1-233)
Description: competition of free emodin against pull-down by emodin-Sepharose, anti-Flag western blot. Type of test: biochemical. The conditions noted are these: 100 µM free emodin; HEK293T lysate, pH 7.4, 4 °C.

In the case of `Cc1cc(O)c2c(c1)C(=O)c1cc(O)cc(O)c1C2=O` [Emodin], in test [1], the thermal stabilisation entry is listed as “Emodin binding significantly enhances BCL-10′s thermal resistance”. Further, the Kd in test [2] came out at 1940 nM. Further, the “competition of free emodin against pull-down by emodin-Sepharose, anti-Flag west” value in test [3] is recorded as “free Emodin competitively inhibited the binding of Flag-BCL-10 to Emodin-Sepharose”.
